Assay results: PubChem BioAssay AID1259407 (Chemical Carcinogenesis Research Information System (CCRIS), 2018)
Activity calls are given as the source filed them. No rule for the calls is given here.

System: CCRIS mutagenicity, Ames/micronucleus/aberration tests
Test: CCRIS mutagenicity studies
[1] = Test System: AMES SALMONELLA TYPHIMURIUM, Strain/Indicator: TA98, Metabolic Activation: NONE, Method: STANDARD PLATE
[2] = Test System: AMES SALMONELLA TYPHIMURIUM, Strain/Indicator: TA100, Metabolic Activation: NONE, Method: STANDARD PLATE
[3] = Test System: AMES SALMONELLA TYPHIMURIUM, Strain/Indicator: TA1535, Metabolic Activation: NONE, Method: STANDARD PLATE
[4] = Test System: AMES SALMONELLA TYPHIMURIUM, Strain/Indicator: TA1537, Metabolic Activation: NONE, Method: STANDARD PLATE
[5] = Test System: AMES SALMONELLA TYPHIMURIUM, Strain/Indicator: TA1538, Metabolic Activation: NONE, Method: STANDARD PLATE

With O=C1CC(c2ccc(O)cc2)Oc2cc(O)cc(O)c21 (stereo not given) the mutagenic call (Test System: AMES SALMONELLA TYPHIMURIUM, Strain/Indicator: TA98, Metabolic Activation: HAMSTER, LIVER, S-9, AROCLOR 1254, Method: STANDARD PLATE) was “inactive; negative”, the mutagenic call [1] was “inactive; negative” and the mutagenic call (Test System: AMES SALMONELLA TYPHIMURIUM, Strain/Indicator: TA98, Metabolic Activation: RAT, LIVER, S-9, AROCLOR 1254, Method: STANDARD PLATE) was “inactive; negative”. For the same compound, the mutagenic call (Test System: AMES SALMONELLA TYPHIMURIUM, Strain/Indicator: TA100, Metabolic Activation: HAMSTER, LIVER, S-9, AROCLOR 1254, Method: STANDARD PLATE) was “inactive; negative”, the mutagenic call [2] was “inactive; negative” and the mutagenic call (Test System: AMES SALMONELLA TYPHIMURIUM, Strain/Indicator: TA100, Metabolic Activation: RAT, LIVER, S-9, AROCLOR 1254, Method: STANDARD PLATE) was “inactive; negative”. For the same compound, the mutagenic call (Test System: AMES SALMONELLA TYPHIMURIUM, Strain/Indicator: TA1535, Metabolic Activation: HAMSTER, LIVER, S-9, AROCLOR 1254, Method: STANDARD PLATE) was “inactive; negative”, the mutagenic call [3] was “inactive; negative” and the mutagenic call (Test System: AMES SALMONELLA TYPHIMURIUM, Strain/Indicator: TA1535, Metabolic Activation: RAT, LIVER, S-9, AROCLOR 1254, Method: STANDARD PLATE) was “inactive; negative”. For the same compound, the mutagenic call (Test System: AMES SALMONELLA TYPHIMURIUM, Strain/Indicator: TA1537, Metabolic Activation: HAMSTER, LIVER, S-9, AROCLOR 1254, Method: STANDARD PLATE) was “inactive; negative”, the mutagenic call [4] was “inactive; negative” and the mutagenic call (Test System: AMES SALMONELLA TYPHIMURIUM, Strain/Indicator: TA1537, Metabolic Activation: RAT, LIVER, S-9, AROCLOR 1254, Method: STANDARD PLATE) was “inactive; negative”. For the same compound, the mutagenic call (Test System: AMES SALMONELLA TYPHIMURIUM, Strain/Indicator: TA1538, Metabolic Activation: HAMSTER, LIVER, S-9, AROCLOR 1254, Method: STANDARD PLATE) was “inactive; negative”, the mutagenic call [5] was “inactive; negative” and the mutagenic call (Test System: AMES SALMONELLA TYPHIMURIUM, Strain/Indicator: TA1538, Metabolic Activation: RAT, LIVER, S-9, AROCLOR 1254, Method: STANDARD PLATE) was “inactive; negative”.
With Cn1cnc(-c2ccccc2)c1[N+](=O)[O-] the mutagenic call [2] was “active; positive”.
In the case of Oc1ccc(N=Nc2ccccn2)c(O)c1, the mutagenic call (End Point: Mouse lymphoma, Test System: L5178Y (TK+/TK-)/trifluorothymidine, Metabolic Activation: None, Method: Suspension/plate) is reported as “inactive; negative”, the mutagenic call (End Point: Mouse lymphoma, Test System: L5178Y (TK+/TK-)/trifluorothymidine, Metabolic Activation: Rat, Liver, S-9, Method: Suspension/plate) is reported as “inactive; negative” and the mutagenic call (Test System: Ames Salmonella typhimurium, Strain/Indicator: TA98, Metabolic Activation: None) is reported as “inactive; negative”. For the same compound, the mutagenic call (Test System: Ames Salmonella typhimurium, Strain/Indicator: TA98, Metabolic Activation: Rat, Liver, S-9) was “inactive; negative”, the mutagenic call (Test System: Ames Salmonella typhimurium, Strain/Indicator: TA100, Metabolic Activation: None) was “inactive; negative” and the mutagenic call (Test System: Ames Salmonella typhimurium, Strain/Indicator: TA100, Metabolic Activation: Rat, Liver, S-9) was “inactive; negative”. The mutagenic call (Test System: Ames Salmonella typhimurium, Strain/Indicator: TA1535, Metabolic Activation: None) was “inactive; negative”, the mutagenic call (Test System: Ames Salmonella typhimurium, Strain/Indicator: TA1535, Metabolic Activation: Rat, Liver, S-9) was “inactive; negative” and the mutagenic call (Test System: Ames Salmonella typhimurium, Strain/Indicator: TA1537, Metabolic Activation: None) was “inactive; negative”. The mutagenic call (Test System: Ames Salmonella typhimurium, Strain/Indicator: TA1537, Metabolic Activation: Rat, Liver, S-9) was “inactive; negative”.
For CC(C)(O)[C@H]1Cc2cc3ccc(=O)oc3cc2O1, the mutagenic call (Test System: AMES SALMONELLA TYPHIMURIUM, Strain/Indicator: TA92, Metabolic Activation: NONE, Method: SPOT TEST) was “active; positive”, the mutagenic call (Test System: AMES SALMONELLA TYPHIMURIUM, Strain/Indicator: TA92, Metabolic Activation: RAT, LIVER, S-9, AROCLOR 1254, Method: SPOT TEST) was “active; positive” and the mutagenic call (Test System: AMES SALMONELLA TYPHIMURIUM, Strain/Indicator: TA94, Metabolic Activation: NONE, Method: SPOT TEST) was “inactive; negative”. For the same compound, the mutagenic call (Test System: AMES SALMONELLA TYPHIMURIUM, Strain/Indicator: TA94, Metabolic Activation: RAT, LIVER, S-9, AROCLOR 1254, Method: SPOT TEST) was “inactive; negative”, the mutagenic call (Test System: AMES SALMONELLA TYPHIMURIUM, Strain/Indicator: TA97, Metabolic Activation: NONE, Method: SPOT TEST) was “active; positive” and the mutagenic call (Test System: AMES SALMONELLA TYPHIMURIUM, Strain/Indicator: TA97, Metabolic Activation: RAT, LIVER, S-9, AROCLOR 1254, Method: SPOT TEST) was “active; positive”. For the same compound, the mutagenic call (Test System: AMES SALMONELLA TYPHIMURIUM, Strain/Indicator: TA98, Metabolic Activation: NONE, Method: SPOT TEST) was “active; positive”, the mutagenic call (Test System: AMES SALMONELLA TYPHIMURIUM, Strain/Indicator: TA98, Metabolic Activation: RAT, LIVER, S-9, AROCLOR 1254, Method: SPOT TEST) was “active; positive” and the mutagenic call (Test System: AMES SALMONELLA TYPHIMURIUM, Strain/Indicator: TA100, Metabolic Activation: NONE, Method: SPOT TEST) was “active; positive”. For the same compound, the mutagenic call [2] was “active; positive”, the mutagenic call (Test System: AMES SALMONELLA TYPHIMURIUM, Strain/Indicator: TA100, Metabolic Activation: RAT, LIVER, S-9, AROCLOR 1254, Method: SPOT TEST) was “active; positive” and the mutagenic call (Test System: AMES SALMONELLA TYPHIMURIUM, Strain/Indicator: TA102, Metabolic Activation: NONE, Method: SPOT TEST) was “inactive; negative”. The mutagenic call (Test System: AMES SALMONELLA TYPHIMURIUM, Strain/Indicator: TA102, Metabolic Activation: RAT, LIVER, S-9, AROCLOR 1254, Method: SPOT TEST) was “inactive; negative”.
In the case of Cl[Si](Cl)(Cl)Cl, the mutagenic call [1] is reported as “inactive; negative”, the mutagenic call (Test System: AMES SALMONELLA TYPHIMURIUM, Strain/Indicator: TA98, Metabolic Activation: RAT LIVER S-9, AROCLOR 1254, Method: STANDARD PLATE) is reported as “inactive; negative” and the mutagenic call [2] is reported as “inactive; negative”. The mutagenic call (Test System: AMES SALMONELLA TYPHIMURIUM, Strain/Indicator: TA100, Metabolic Activation: RAT LIVER S-9, AROCLOR 1254, Method: STANDARD PLATE) was “inactive; negative”, the mutagenic call [3] was “inactive; negative” and the mutagenic call (Test System: AMES SALMONELLA TYPHIMURIUM, Strain/Indicator: TA1535, Metabolic Activation: RAT LIVER S-9, AROCLOR 1254, Method: STANDARD PLATE) was “inactive; negative”. For the same compound, the mutagenic call [4] was “inactive; negative”, the mutagenic call (Test System: AMES SALMONELLA TYPHIMURIUM, Strain/Indicator: TA1537, Metabolic Activation: RAT LIVER S-9, AROCLOR 1254, Method: STANDARD PLATE) was “inactive; negative” and the mutagenic call [5] was “inactive; negative”. For the same compound, the mutagenic call (Test System: AMES SALMONELLA TYPHIMURIUM, Strain/Indicator: TA1538, Metabolic Activation: RAT LIVER S-9, AROCLOR 1254, Method: STANDARD PLATE) was “inactive; negative”, the mutagenic call (Test System: E. COLI, Strain/Indicator: P3078 POLA, Metabolic Activation: NONE, Method: SPOT TEST) was “inactive; negative” and the mutagenic call (Test System: E. COLI, Strain/Indicator: P3078 POLA, Metabolic Activation: RAT LIVER S-9, AROCLOR 1254, Method: SPOT TEST) was “inactive; negative”. For the same compound, the mutagenic call (Test System: E. COLI, Strain/Indicator: W3110, Metabolic Activation: NONE, Method: SPOT TEST) was “inactive; negative”, the mutagenic call (Test System: E. COLI, Strain/Indicator: W3110, Metabolic Activation: RAT LIVER S-9, AROCLOR 1254, Method: SPOT TEST) was “inactive; negative” and the mutagenic call (Test System: MOUSE LYMPHOMA, Strain/Indicator: L5178Y (TK+/TK-), Metabolic Activation: NONE, Method: SUSPENSION/PLATE) was “inactive; negative”. For the same compound, the mutagenic call (Test System: MOUSE LYMPHOMA, Strain/Indicator: L5178Y (TK+/TK-), Metabolic Activation: RAT, LIVER, S-9, Method: SUSPENSION/PLATE) was “inactive; negative”.
